Reference: patent US12595267B2, “Preparation method for amide compound and application thereof in field of medicine” (Shanghai Synergy Pharmaceutical Sciences Co., Ltd., priority 2019, dated 2026)
Where two headings read alike, the source gives them in different places.

Assays:
WSU-DLCL2 cells = test: Calcein AM proliferation assay, WSU-DLCL2 cells; assay type: cell-based, human; details: read-out: WSU-DLCL2 proliferation IC50
Method: (§1) By observing under a microscope, it was confirmed that the cells are in good condition. The cells were transferred to a 15 mL centrifuge tube, which was centrifuged at 1000 rpm for 5 minutes.
Gradient dilutions of the compounds in DMSO were performed, and a compound plate with a final concentration of 500-fold was prepared. 1.2 μL of 500× compound was pipetted, transferred to 200 μL medium, and pipetted to mix well to obtain a 3× compound intermediate plate. 50 μL 3× compound is pipetted and added to the cell plate according to the set arrangement.
The cells of the above concentration were inoculated in 96-well plates, 100 μL/well (the number of cells in each well is 10,000). The cell plate was placed in a carbon dioxide incubator for 4 days. The cell plate was taken out. After mixed uniformly, a certain volume of cell suspension was drawn, and stained with Calcein AM. The number of cells in each well was counted with Acumen. According to the number of detected cells, 10,000 cells were re-inoculated in 96-well plates. As above, the compound was added. After placed in a carbon dioxide incubator for 3 days (day 7). The cell plate was taken out again. After mixed uniformly, a certain volume of cell suspension was drawn, stained with Calcein AM. The number of cells in each well was counted with Acumen. The cells were cultured for another 4 days (day 11), and the cell plate was taken out for the third time. After mixed uniformly, a certain volume of cell suspension was drawn, and stained with Calcein AM. The number of cells in each well was counted with Acumen. According to the number of detected cells, 10,000 cells were re-inoculated in 96-well plates. As above, the compound was added. […] After Calcein AM staining, the number of the cells was counted to obtain the final count result. The data of day 14 was processed to obtain the corresponding half-inhibitory concentration (IC50).
Using GraphPad Prism 5 software, a non-linear regression model was used to draw the S-type dose-survival rate curve and to calculate the IC50 value.

Pfeiffer cells = test: Calcein AM proliferation assay, Pfeiffer cells; assay type: cell-based, human; details: read-out: Pfeiffer proliferation IC50
Karpas 422 cells = test: Calcein AM proliferation assay, Karpas 422 cells; assay type: cell-based, human; details: read-out: Karpas422 proliferation IC50
[1] = Pharmacokinetics experiment in rats; assay type: in vivo; details: rat, plasma, male SD rats; for bioavailability: oral 20 mg/kg vs intravenous 4 mg/kg, read-out: Bioavailability (F %); for AUC: read-out: Area under the curve (AUC); for half-life: read-out: Half life (T1/2) (converted); for Cmax: read-out: Blood drug level (Cmax)
Method: Male SD rats weighing 200-300 g and 8 weeks old were used as experimental animals. […] The pharmacokinetic behavior of the compound of the present invention in rats was studied, and the pharmacokinetic characteristics thereof were evaluated.
A certain amount of the compound was weighed, dissolved in 0.10% tween for vortex and ultrasound, and then 0.5% sodium carboxymethyl cellulose (CMC-Na) solution was added to prepare a uniform solution.
The above-mentioned compounds were applied intravenously and orally to rats at a dose of 4 mg/kg and a dose of 20 mg/kg, respectively. At 0.083 h, 0.25 h, 0.5 h, 1.0 h, 2.0 h, 4.0 h, 6.0 h, 8.0 h, 12.0 h, and 24.0 h after application, 0.2 mL of blood was collected from the orbit, and placed in an anticoagulant tube, which was centrifuged at 6000 rpm for 10 minutes at 4° C. The plasma was separated and stored at −80° C.

[2] = test system: WSU-DLCL2 cell mouse xenograft tumor model; test: Pharmacodynamic experiment in WSU-DLCL2 mouse xenograft tumor model; assay type: in vivo; details: CB17/SCID mice
Method: A certain amount of the compound was weighed, dissolved in 0.1% tween for vortex and ultrasound, and then 0.5% sodium carboxymethyl cellulose (CMC-Na) solution was added to prepare a uniform solution.
as §1

wild-type EZH2 = wild-type EZH2 (Homo sapiens, UniProt Q15910); test: Radiometric assay of activity on wild-type PRC2 EZH2
Method: 10 microliters (μL) of the compound of the test example and wild-type EZH2 were added to each well. After being incubated at room temperature for 15 minutes, peptides and [3H]-labeled methyl donor S-adenosylmethionine (SAM) were added. After reacting at room temperature for 1 hour (h), cold SAM was added to terminate the reaction. 25 μl reaction solution was transferred to the scintillation plate. After incubating for 1 hour (h) at room temperature, the plate was washed three times with deionized water and 0.1% Tween 20. The value was read with a PerkinElmer liquid scintillation/luminescence counter, and the half inhibitory concentration (IC50) of the compound was calculated with the Prism 5 software (GraphPad Prism 5).

Mutant EZH2 (Y641F) = target: T1, Mutant EZH2 (Y641F) (Homo sapiens, UniProt Q15910, Y641F); test: AlphaLISA assay on mutant PRC2 complex, EZH2 Y641F; assay type: biochemical
T1 construct: purchased BPS 51004
Method: Detection Method: AlphaLISA
(§2) Finally, 15 μl detection solution mixture was added under low light, and incubated at room temperature for 60 minutes, and read the value.

Mutant EZH2 (A677G) = target: T2, Mutant EZH2 (A677G) (Homo sapiens, UniProt Q15910, A677G); test: AlphaLISA assay on mutant PRC2 complex, EZH2 A677G; assay type: biochemical
T2 construct: purchased BPS 51004
Method: Detection Method: AlphaLISA
as §2

Mutant EZH2 (Y641N) = target: T3, Mutant EZH2 (Y641N) (Homo sapiens, UniProt Q15910, Y641N); test: AlphaLISA assay on mutant PRC2 complex, EZH2 Y641N; assay type: biochemical
T3 construct: purchased BPS 51004
Method: Detection Method: AlphaLISA
as §2

[3] = Homo sapiens, WSUDLCL2, day 14 data, Calcein AM staining
[4] = Homo sapiens, Pfeiffer, day 14 data, Calcein AM staining
[5] = Homo sapiens, KARPAS-422, day 14 data, Calcein AM staining
[6] = 150 mg/kg gastric irrigation, 21 days
[7] = day 14 data, Calcein AM staining

wild-type EZH2, sequence (Q15910 whole entry): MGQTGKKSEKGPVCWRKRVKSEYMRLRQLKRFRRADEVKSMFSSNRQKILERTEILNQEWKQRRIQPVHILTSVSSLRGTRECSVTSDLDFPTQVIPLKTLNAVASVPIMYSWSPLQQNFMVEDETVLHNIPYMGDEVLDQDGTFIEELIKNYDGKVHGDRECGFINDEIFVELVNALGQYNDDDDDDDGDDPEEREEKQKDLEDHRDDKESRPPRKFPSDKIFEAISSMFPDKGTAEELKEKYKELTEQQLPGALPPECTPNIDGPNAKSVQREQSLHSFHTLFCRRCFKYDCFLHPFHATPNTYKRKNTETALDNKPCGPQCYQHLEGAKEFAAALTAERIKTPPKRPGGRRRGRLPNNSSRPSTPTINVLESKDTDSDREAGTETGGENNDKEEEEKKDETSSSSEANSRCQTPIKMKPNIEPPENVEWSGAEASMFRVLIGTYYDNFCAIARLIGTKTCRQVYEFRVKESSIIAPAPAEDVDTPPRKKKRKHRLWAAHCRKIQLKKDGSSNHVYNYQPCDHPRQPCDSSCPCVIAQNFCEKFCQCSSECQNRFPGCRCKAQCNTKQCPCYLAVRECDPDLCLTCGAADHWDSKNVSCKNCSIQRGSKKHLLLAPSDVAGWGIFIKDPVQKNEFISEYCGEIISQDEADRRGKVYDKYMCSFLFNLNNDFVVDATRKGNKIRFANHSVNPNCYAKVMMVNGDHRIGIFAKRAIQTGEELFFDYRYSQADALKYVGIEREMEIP
wild-type EZH2, sequence (O75530 whole entry partner): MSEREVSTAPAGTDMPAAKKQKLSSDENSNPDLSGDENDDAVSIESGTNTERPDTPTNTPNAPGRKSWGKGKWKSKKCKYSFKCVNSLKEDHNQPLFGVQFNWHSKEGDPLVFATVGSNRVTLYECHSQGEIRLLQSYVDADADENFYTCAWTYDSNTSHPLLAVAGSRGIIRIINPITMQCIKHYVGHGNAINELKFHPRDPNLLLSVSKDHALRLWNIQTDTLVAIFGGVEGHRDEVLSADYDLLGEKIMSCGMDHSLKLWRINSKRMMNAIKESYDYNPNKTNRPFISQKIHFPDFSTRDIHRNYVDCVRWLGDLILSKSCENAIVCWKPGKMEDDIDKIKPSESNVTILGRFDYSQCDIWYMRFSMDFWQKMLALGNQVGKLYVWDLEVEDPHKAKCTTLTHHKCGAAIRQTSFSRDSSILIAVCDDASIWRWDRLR
wild-type EZH2, sequence (Q15022 whole entry partner): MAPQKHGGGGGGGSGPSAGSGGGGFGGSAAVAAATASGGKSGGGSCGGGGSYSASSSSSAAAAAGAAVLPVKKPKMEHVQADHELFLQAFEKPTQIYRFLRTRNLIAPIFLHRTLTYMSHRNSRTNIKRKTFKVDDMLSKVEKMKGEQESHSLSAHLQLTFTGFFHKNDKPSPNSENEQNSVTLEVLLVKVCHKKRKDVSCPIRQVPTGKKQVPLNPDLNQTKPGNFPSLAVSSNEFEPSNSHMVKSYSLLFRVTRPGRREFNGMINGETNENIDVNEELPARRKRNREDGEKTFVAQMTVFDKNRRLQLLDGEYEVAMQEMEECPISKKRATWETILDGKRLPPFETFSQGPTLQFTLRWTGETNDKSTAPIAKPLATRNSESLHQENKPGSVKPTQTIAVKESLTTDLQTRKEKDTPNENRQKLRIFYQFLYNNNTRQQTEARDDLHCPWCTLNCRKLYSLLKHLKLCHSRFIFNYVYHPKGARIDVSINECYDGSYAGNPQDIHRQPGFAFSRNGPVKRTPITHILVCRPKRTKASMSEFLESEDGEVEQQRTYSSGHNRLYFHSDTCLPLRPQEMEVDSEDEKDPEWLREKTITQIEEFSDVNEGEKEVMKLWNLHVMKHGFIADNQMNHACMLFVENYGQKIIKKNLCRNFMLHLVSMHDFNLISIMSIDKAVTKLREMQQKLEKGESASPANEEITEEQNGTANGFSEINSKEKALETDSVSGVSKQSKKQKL
wild-type EZH2, sequence (Q09028 whole entry partner): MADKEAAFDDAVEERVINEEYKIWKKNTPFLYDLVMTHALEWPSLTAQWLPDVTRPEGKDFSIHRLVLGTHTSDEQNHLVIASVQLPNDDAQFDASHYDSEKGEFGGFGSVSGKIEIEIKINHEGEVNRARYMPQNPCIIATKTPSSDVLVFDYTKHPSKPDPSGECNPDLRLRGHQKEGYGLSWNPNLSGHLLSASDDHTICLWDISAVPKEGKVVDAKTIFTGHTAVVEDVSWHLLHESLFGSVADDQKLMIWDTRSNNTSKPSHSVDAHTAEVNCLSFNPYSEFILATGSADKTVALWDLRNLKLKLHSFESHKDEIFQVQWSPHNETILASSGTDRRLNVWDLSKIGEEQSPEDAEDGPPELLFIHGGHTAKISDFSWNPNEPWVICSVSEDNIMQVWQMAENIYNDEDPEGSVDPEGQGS
T3 sequence (Q15910 whole entry Y641N): as the sequence (Q15910 whole entry) above, with Y641N counted along it
T3 sequence (O75530 whole entry partner): as the sequence (O75530 whole entry partner) above
T3 sequence (Q15022 whole entry partner): as the sequence (Q15022 whole entry partner) above
T3 sequence (Q09028 whole entry partner): as the sequence (Q09028 whole entry partner) above
T3 sequence (Q6ZN18 whole entry partner): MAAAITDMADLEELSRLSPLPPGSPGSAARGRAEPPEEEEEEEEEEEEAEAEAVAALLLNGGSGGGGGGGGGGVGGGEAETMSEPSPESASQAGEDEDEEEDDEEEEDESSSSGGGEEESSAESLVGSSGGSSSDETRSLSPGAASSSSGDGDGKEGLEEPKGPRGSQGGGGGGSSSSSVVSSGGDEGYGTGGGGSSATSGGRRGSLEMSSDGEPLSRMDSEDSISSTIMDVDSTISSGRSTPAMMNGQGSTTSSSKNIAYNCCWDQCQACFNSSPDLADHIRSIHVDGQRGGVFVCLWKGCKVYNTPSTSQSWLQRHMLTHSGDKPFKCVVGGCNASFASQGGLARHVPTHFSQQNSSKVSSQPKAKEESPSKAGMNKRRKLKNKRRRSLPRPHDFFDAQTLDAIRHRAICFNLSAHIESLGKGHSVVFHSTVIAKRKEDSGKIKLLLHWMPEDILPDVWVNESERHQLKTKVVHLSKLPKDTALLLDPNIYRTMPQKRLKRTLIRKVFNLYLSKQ
T2 sequence (Q15910 whole entry A677G): as the sequence (Q15910 whole entry) above, with A677G counted along it
T2 sequence (O75530 whole entry partner): as the sequence (O75530 whole entry partner) above
T2 sequence (Q15022 whole entry partner): as the sequence (Q15022 whole entry partner) above
T2 sequence (Q09028 whole entry partner): as the sequence (Q09028 whole entry partner) above
T2 sequence (Q6ZN18 whole entry partner): as the sequence (Q6ZN18 whole entry partner) above
T1 sequence (Q15910 whole entry Y641F): as the sequence (Q15910 whole entry) above, with Y641F counted along it
T1 sequence (O75530 whole entry partner): as the sequence (O75530 whole entry partner) above
T1 sequence (Q15022 whole entry partner): as the sequence (Q15022 whole entry partner) above
T1 sequence (Q09028 whole entry partner): as the sequence (Q09028 whole entry partner) above
T1 sequence (Q6ZN18 whole entry partner): as the sequence (Q6ZN18 whole entry partner) above

Compound | IC50 (Karpas 422 cells; [5]) [nM] | bioavailability [1] [%] | AUC ([1]; intravenous dosing 4 mg/kg) [ng·h/mL] | half-life ([1]; intravenous dosing 4 mg/kg) [min] | AUC ([1]; oral dosing 20 mg/kg) [ng·h/mL] | Cmax ([1]; oral dosing 20 mg/kg) [ng/mL] | IC50 (wild-type EZH2) [nM] | IC50 (Karpas 422 cells; [7]) [nM] | IC50 (Mutant EZH2 (Y641F)) [nM] | IC50 (Mutant EZH2 (A677G)) [nM] | IC50 (Mutant EZH2 (Y641N)) [nM] | IC50 (WSU-DLCL2 cells; [3]) [nM] | IC50 (Pfeiffer cells; [4]) [nM] | tumor growth inhibition [2, 6] [%] | IC50 (WSU-DLCL2 cells; [7]) [nM] | IC50 (Pfeiffer cells; [7]) [nM] | tumor growth inhibition ([2]; 50 mg/kg abdominal, once a day for 21 days) [%] | IC50 (WSU-DLCL2 cells; Homo sapiens, WSUDLCL2, […]) [nM] | IC50 (Pfeiffer cells; Homo sapiens, Pfeiffer, […]) [nM] | IC50 (Karpas 422 cells; Homo sapiens, KARPAS-422, […]) [nM]
CCN(c1cc(N2Cc3cn(C)cc3C2)cc(C(=O)NCc2c(C)cc(C)[nH]c2=O)c1C)C1CCOCC1 [Compound 21, N-((4,6-dimethyl-2-oxo-1,2-dihydropyridin-3-yl)methyl)-3-(ethyl (tetrahydro-2H-pyran-4-yl)amino)-2-methyl-5-(5-methyl-3,5-dihydropyrrolo[3,4-c]pyrrole-2(1H)-yl)benzamide] | 8.15 | 26.8 | 932 | 103 | 1250 | 426 | 0.9 | – | – | – | – | 9.38 | 7.16 | 90 | – | – | – | – | – | –
CCN(c1cc(N2Cc3ccccc3C2)cc(C(=O)NCc2c(C)cc(C)[nH]c2=O)c1C)C1CCOCC1 [Compound 15, N-4,6-((dimethyl-2-oxo-1,2-dihydropyridin-3-yl)methyl)-3-(ethyl (tetrahydro-2H-pyran-4-yl)amino)-5-(5-isoindolin-2-yl)-2-methylbenzamide] | 2.15 | 34.5 | 893 | 85.2 | 1540 | 500 | – | – | 0.78 | 0.24 | 0.1 | 2.46 | 0.93 | – | – | – | – | – | – | –
CCN(c1cc(-c2ccc3c(c2)CCC3N2CCOCC2)c(Cl)c(C(=O)NCc2c(OC)cc(C)[nH]c2=O)c1C)C1CCOCC1 (centres unmarked) [Compound 12, 2-chloro-5-(ethyl(tetrahydro-2H-pyran-4-yl)amino)-N-((4-methoxy-6-methyl-2-carbonyl-1,2-dihydropyridin-3-yl)methyl)-6-methyl-3-(1-morpholino-2,3-dihydro-1H-inden-5-yl)benzamide] | – | 27.4 | 956 | 85.2 | 1310 | 480 | – | – | – | – | – | – | – | 85 | – | – | – | 2.36 | 1.69 | 1.84
CCN(c1cc(N2CCc3ccccc3C2)cc(C(=O)NCc2c(C)cc(C)[nH]c2=O)c1C)C1CCOCC1 [Compound 16, 5-(3,4-dihydroisoquinoline-2(1H)-yl)-N-((4,6-dimethyl-2-oxo-1,2-dihydropyridin-3-yl)methyl)-3-(ethyl(tetrahydro-2H-pyran-4-yl)amino)-2-methylbenzamide] | 3.34 | 24.4 | 975 | 112 | 1190 | 433 | 0.95 | – | 0.82 | 0.74 | 0.61 | 5.12 | 1.87 | – | – | – | – | – | – | –
CCN(c1cc(N2Cc3ccc(N4CCOCC4)cc3C2)cc(C(=O)NCc2c(C)cc(C)[nH]c2=O)c1C)C1CCOCC1 [Compound 18, N-((4,6-dimethyl-2-oxo-1,2-dihydropyridin-3-yl)methyl)-3-(ethyl (tetrahydro-2H-pyran-4-yl)amino)-2-methyl-5-(5-morpholinoisoindolin-2-yl) benzamide] | 2.34 | 34.3 | 969 | 94.2 | 1660 | 457 | 0.8 | – | 0.71 | 0.64 | 0.5 | 2.89 | 1.86 | – | – | – | – | – | – | –

More lines, main results first:

IC50 (Karpas 422 cells; [5]) [nM] | bioavailability [1] [%] | AUC ([1]; intravenous dosing 4 mg/kg) [ng·h/mL] | half-life ([1]; intravenous dosing 4 mg/kg) [min] | AUC ([1]; oral dosing 20 mg/kg) [ng·h/mL] | Cmax ([1]; oral dosing 20 mg/kg) [ng/mL] | IC50 (wild-type EZH2) [nM] | IC50 (Karpas 422 cells; [7]) [nM] | IC50 (Mutant EZH2 (Y641F)) [nM] | IC50 (Mutant EZH2 (A677G)) [nM] | IC50 (Mutant EZH2 (Y641N)) [nM] | Compound | IC50 (WSU-DLCL2 cells; [3]) [nM] | IC50 (Pfeiffer cells; [4]) [nM] | tumor growth inhibition [2, 6] [%] | IC50 (WSU-DLCL2 cells; [7]) [nM] | IC50 (Pfeiffer cells; [7]) [nM] | tumor growth inhibition ([2]; 50 mg/kg abdominal, once a day for 21 days) [%] | IC50 (WSU-DLCL2 cells; Homo sapiens, WSUDLCL2, […]) [nM] | IC50 (Pfeiffer cells; Homo sapiens, Pfeiffer, […]) [nM] | IC50 (Karpas 422 cells; Homo sapiens, KARPAS-422, […]) [nM]
– | – | – | – | – | – | – | 20.3 | – | – | – | CC[C@H](C)n1cc(C)c2c(C(=O)NCc3c(C)cc(C)[nH]c3=O)cc(-c3ccc(N4CCNCC4)nc3)cc21 [GSK126, reference compound] | – | – | – | 34.1 | 12.2 | 61 | – | – | –
2.7 | – | – | – | – | – | 0.91 | – | – | 0.5 | 0.3 | CCN(c1cc(-c2cc3c(cc2F)C(N2CCOCC2)CC3)c(F)c(C(=O)NCc2c(C)cc(C)[nH]c2=O)c1C)C1CCOCC1 (centres unmarked) [Compound 28] | 3.47 | 1.53 | – | – | – | – | – | – | –
1.99 | – | – | – | – | – | – | – | – | – | – | CCN(c1cc(-c2ccc3c(c2)CCN3C2CCOCC2)cc(C(=O)NCc2c(C)cc(C)[nH]c2=O)c1C)C1CCOCC1 [Compound 29, N-((4,6-dimethyl-2-oxo-1,2-dihydropyridin-3-yl)methyl)-3-(ethyl (tetrahydro-2H-pyran-4-yl)amino)-2-methyl-5-(1-(1-tetrahydro-2H-pyran-4-yl)indolin-5-yl)benzamide] | 2.18 | 1.42 | 78 | – | – | – | – | – | –
